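Where inhibition never reached the appropriate level, the endpoint shown equals the highest concentration tested. Otherwise, values were interpolated linearly from a five-concentration, 48-hour dose response in 96-well plates. GI50: concentration for 50% inhibition of growth.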 The source made the active and inactive calls. Rule as the data show it: active = GI50 up to about 1.1 µM and inactive = higher.
Key:
Experiment in all cases: DTP human tumour cell line panel, 48 h
MDA-MB-231 = test system: MDA-MB-231
MDA-N = test system: MDA-N
NCI/ADR-RES = test system: NCI/ADR-RES
DMS-273 = test system: DMS-273
KM-20L2 = test system: KM-20L2
LXFL 529 = test system: LXFL 529
XF498 = test system: XF498
HOP-18 = test system: HOP-18

Structure (SMILES) | GI50 (MDA-MB-231) | GI50 (MDA-N) | GI50 (NCI/ADR-RES) | GI50 (DMS-273) | GI50 (KM-20L2) | GI50 (LXFL 529) | GI50 (XF498) | GI50 (HOP-18)
CSC1(SC2=NCCN2)SC2(NCCN2)S1 | 21.1 µM (inactive) | 20.5 µM (inactive) | 31.8 µM (inactive) | – | – | – | – | –
Sc1ncnc2c1ncn2Cc1ccco1 | > 100 µM (inactive) | > 100 µM (inactive) | > 100 µM (inactive) | – | – | – | – | –
c1ccc(SC(Sc2ccccc2)c2ccc3c(c2)OCO3)cc1 | > 100 µM (inactive) | 88.9 µM (inactive) | > 100 µM (inactive) | – | – | – | – | –
OC1(C(O)(c2ccc(-c3ccccc3)cc2)c2ccc(-c3ccccc3)cc2)CCCCC1 | > 100 µM (inactive) | > 100 µM (inactive) | > 100 µM (inactive) | – | – | – | – | –
Nc1nc(N)nc(CC(=O)O)n1 | > 100 µM (inactive) | > 100 µM (inactive) | > 100 µM (inactive) | – | – | – | – | –
CN(C)c1ccc(/C=C2\Oc3ccccc3C2=O)cc1 | > 100 µM (inactive) | 34.8 µM (inactive) | 68.5 µM (inactive) | – | – | – | – | –
N#C/C(=C1/c2cc([N+](=O)[O-])ccc2-c2c1cc([N+](=O)[O-])cc2[N+](=O)[O-])N1CCCCC1 | > 100 µM (inactive) | > 100 µM (inactive) | 51.3 µM (inactive) | – | – | – | – | –
CCCCCCCCCCCCCCCCCCNc1ccn(C2OC(COP(=O)(O)OCC3OC(n4ccc(N)nc4=O)C(O)C3O)C(O)C2O)c(=O)n1 (stereo not drawn) | > 100 µM (inactive) | > 100 µM (inactive) | 47.1 µM (inactive) | – | – | – | – | –
Oc1ccc(/C=N/c2ccccc2O)cc1 | 51.1 µM (inactive) | 18.3 µM (inactive) | 75 µM (inactive) | – | – | – | – | –
C=CC(C)CCC(C/C=C(\C)CCCC(C)C)C(=C)CCCC(C)C (stereo not drawn) | > 100 µM (inactive) | > 100 µM (inactive) | > 100 µM (inactive) | – | – | – | – | –
C/C(=N/NC(=S)Nc1ccc([N+](=O)[O-])cc1)c1cccc(/C(C)=N\NC(=S)Nc2ccc([N+](=O)[O-])cc2)n1 | 0.56 µM (active) | 2.35 µM (inactive) | 0.469 µM (active) | – | – | – | – | –
O=C1C(Cl)C(c2ccccc2Cl)N1n1cnc2ccccc2c1=O (stereo not drawn) | – | – | – | 26 µM (inactive) | > 100 µM (inactive) | 49.1 µM (inactive) | 67.6 µM (inactive) | –
CC(=O)O[C@H]1CCC2[C@@H]3CCC4=C(O)C(=O)C(C#N)C[C@]4(C)C3CC[C@@]21C (stereo partly drawn) | – | – | – | 19.4 µM (inactive) | 81.3 µM (inactive) | 35 µM (inactive) | 22 µM (inactive) | –
CC(=O)N(C)c1ccc(Nc2ccnc3ccc4nn(C)nc4c23)cc1 | – | 36.1 µM (inactive) | 28.1 µM (inactive) | – | – | – | – | –
CCOC(=O)c1c(-c2ccc(OC)cc2)c(C#N)c(=S)n(C2OC(COC(C)=O)C(OC(C)=O)C(OC(C)=O)C2OC(C)=O)c1C (stereo not drawn) | > 100 µM (inactive) | > 100 µM (inactive) | > 100 µM (inactive) | – | – | – | – | –
C/C(Cl)=N\OC(=O)Nc1ccc(C)cc1 | 20.3 µM (inactive) | 16.3 µM (inactive) | 19.7 µM (inactive) | – | – | – | – | –
COC(=O)C(=O)Nc1cc2c3c(c1)Oc1cccc4c1C3(C)c1c(cccc1O2)O4 | > 100 µM (inactive) | > 100 µM (inactive) | 6.56 µM (inactive) | – | – | – | – | –
C/C=C(/C)C(=O)OC1CC(C)[C@H]2CC(=O)C(C)=C2CC1C(C)(C)OC(C)=O (stereo partly drawn) | 31.7 µM (inactive) | 34.2 µM (inactive) | 22.8 µM (inactive) | – | – | – | – | –
COc1ccc(/C=C/C(=N/NC(=O)N/N=C(/C=C/c2ccc(OC)cc2)C(C)(C)CN2CCCCC2)C(C)(C)CN2CCCCC2)cc1 | – | 1.64 µM (inactive) | 1.97 µM (inactive) | – | – | – | – | –
CCOP(C)(=O)C(Cc1c[nH]c2ccccc12)C(=O)O (stereo not drawn) | > 100 µM (inactive) | > 100 µM (inactive) | > 100 µM (inactive) | – | – | – | – | –
CN(C)CC/C(=N\Nc1ccc(Cl)c(Cl)c1)c1ccccc1 | – | – | – | 1.75 µM (inactive) | 1.74 µM (inactive) | 1.52 µM (inactive) | – | 1.52 µM (inactive)
CC(C)(C)O/N=C/c1cc(NC(=S)c2ccsc2)ccc1Cl | 16.4 µM (inactive) | 15.2 µM (inactive) | 11.8 µM (inactive) | – | – | – | – | –
CC(NO)/C(=N/O)c1ccco1 (stereo not drawn) | > 10 µM (inactive) | > 10 µM (inactive) | > 10 µM (inactive) | – | – | – | – | –
COC(=O)CNS(=O)(=O)c1ccc(-c2c3nc(c(-c4ccc(S(=O)(=O)NCC(=O)OC)cc4)c4ccc([nH]4)c(-c4ccc(S(=O)(=O)NCC(=O)OC)cc4)c4nc(c(-c5ccc(S(=O)(=O)NCC(=O)OC)cc5)c5ccc2[nH]5)C=C4)C=C3)cc1 | 42.2 µM (inactive) | > 100 µM (inactive) | > 100 µM (inactive) | – | – | – | – | –
COc1ccc(N2C(=O)[C@@H]3[C@H](C2=O)c2[nH]c4ccccc4c2C2CCC(C(C)(C)C)C[C@@H]23)cc1 (stereo partly drawn) | – | – | – | 41.8 µM (inactive) | 61.9 µM (inactive) | 39.4 µM (inactive) | 44.8 µM (inactive) | –
N#Cc1nc(COCCOCc2ccc(F)cc2)oc1N | > 100 µM (inactive) | – | > 100 µM (inactive) | – | – | – | – | –
Cc1cc(C)n(-c2nc3ccccc3c(=O)n2-c2ccccc2)n1 | > 100 µM (inactive) | > 100 µM (inactive) | > 100 µM (inactive) | – | – | – | – | –
COc1ccc(C(SCCO)(c2ccccc2)c2ccc(OC)cc2)cc1 | 9.64 µM (inactive) | 5.32 µM (inactive) | 15.9 µM (inactive) | – | – | – | – | –
COc1ccc2nc3c([N+](=O)[O-])ccc(NCCN(C)C)c3c(N)c2c1 | 0.234 µM (active) | 1.73 µM (inactive) | 0.847 µM (active) | – | – | – | – | –
